This note sets out measurements from US20240124439A1, “Pyrido[2,3-D]Imidazole Derivatives and Their Use As Inhibitors of ITK for the Treatment of Skin Disease” (Pfizer Inc., priority 2020, published 2024).

The target of assay [1] is IL-2-Inducible T-Cell Kinase (ITK) (Homo sapiens (Human), UniProt Q08881). In words: ITK enzyme assay (IL-2-inducible T-cell kinase activity). The assay is classed as biochemical. To be noted: geometric mean of count n. The method, boiled down:
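Full-length N-Flag/C-His human ITK, pre-incubated 30 min at RT with compound. Reaction in HEPES pH 7.5 buffer with MgCl2, glutathione, gelatin and Brij-35, started with BTK peptide substrate, 60 min at RT. EDTA stop, PT66/APC TR-FRET detection overnight; IC50 fitted by four-parameter logistic.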

Assay [2] has as its target Tropomyosin Receptor Kinase A (TRKA), NTRK1 enzyme (Homo sapiens (Human), UniProt P04629). The experiment in a line: TRKA (NTRK1) ThermoFisher Z'-LYTE enzyme assay. It counts as biochemical. To be noted: test compound 1 uM, ATP 1 mM; arithmetic mean of count n. The method, then:
TRKA, also known as neurotrophic tyrosine kinase receptor type 1 (NTKR1) activity was determined by measuring the effect of a test compound on the activity against the NTRK1 enzyme using the ThermoFisher Z′-LYTE Assay fluorescence-based coupled enzyme format (www.thermofisher.com/selectscreen). Test compounds were screened at a fixed concentration of 1 uM and the % inhibition was determined compared to controls at a fixed ATP concentration of 1 mM. The resulting effect value for the tested compound was compared to the assay controls to determine the % inhibition (%).

Assay [3] deals with activated CD4+ human T-cells (IL-2). In words: IL-2 inhibition in supernatants from activated CD4+ human T-cells (cisbio HTRF). It counts as cell-based. To be noted: CD3/CD28-activated CD4+ human T cells, ImmunoCult stimulation 20 to 24 hrs, geometric mean of count n. Put shortly:
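Primary human CD4+ T cells activated with CD3/CD28 for 3 days and expanded to 7-9 days total, plated at 30,000 cells/well. Cells preincubated 15 min with compound, then stimulated with ImmunoCult (1:50 final) for 20-24 h at 37° C. Supernatant IL-2 measured by HTRF (665/615 nm); IC50 from four-parameter logistic fit.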
(TR-FRET usually uses a lanthanide donor and a delayed reading to cut background.)

IL-2-Inducible T-Cell Kinase (ITK), sequence (Q08881 whole entry): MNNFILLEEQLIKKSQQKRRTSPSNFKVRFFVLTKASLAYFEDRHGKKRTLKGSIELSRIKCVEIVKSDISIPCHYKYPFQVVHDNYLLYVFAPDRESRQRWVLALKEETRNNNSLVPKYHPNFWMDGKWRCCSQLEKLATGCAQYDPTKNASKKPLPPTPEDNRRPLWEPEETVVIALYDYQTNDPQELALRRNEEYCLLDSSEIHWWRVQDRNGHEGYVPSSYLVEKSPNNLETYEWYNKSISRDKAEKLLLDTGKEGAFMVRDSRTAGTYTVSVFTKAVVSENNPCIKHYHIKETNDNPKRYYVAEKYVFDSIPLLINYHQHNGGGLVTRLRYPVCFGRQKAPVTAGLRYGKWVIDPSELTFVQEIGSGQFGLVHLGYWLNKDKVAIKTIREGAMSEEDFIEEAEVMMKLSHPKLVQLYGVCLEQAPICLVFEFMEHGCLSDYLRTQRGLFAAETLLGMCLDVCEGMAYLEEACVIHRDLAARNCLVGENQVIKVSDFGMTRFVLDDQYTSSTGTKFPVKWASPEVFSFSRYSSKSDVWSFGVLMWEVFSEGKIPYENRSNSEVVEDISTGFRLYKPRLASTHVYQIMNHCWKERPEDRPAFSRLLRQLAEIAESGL
Tropomyosin Receptor Kinase A (TRKA), NTRK1 enzyme, sequence (P04629 33-796): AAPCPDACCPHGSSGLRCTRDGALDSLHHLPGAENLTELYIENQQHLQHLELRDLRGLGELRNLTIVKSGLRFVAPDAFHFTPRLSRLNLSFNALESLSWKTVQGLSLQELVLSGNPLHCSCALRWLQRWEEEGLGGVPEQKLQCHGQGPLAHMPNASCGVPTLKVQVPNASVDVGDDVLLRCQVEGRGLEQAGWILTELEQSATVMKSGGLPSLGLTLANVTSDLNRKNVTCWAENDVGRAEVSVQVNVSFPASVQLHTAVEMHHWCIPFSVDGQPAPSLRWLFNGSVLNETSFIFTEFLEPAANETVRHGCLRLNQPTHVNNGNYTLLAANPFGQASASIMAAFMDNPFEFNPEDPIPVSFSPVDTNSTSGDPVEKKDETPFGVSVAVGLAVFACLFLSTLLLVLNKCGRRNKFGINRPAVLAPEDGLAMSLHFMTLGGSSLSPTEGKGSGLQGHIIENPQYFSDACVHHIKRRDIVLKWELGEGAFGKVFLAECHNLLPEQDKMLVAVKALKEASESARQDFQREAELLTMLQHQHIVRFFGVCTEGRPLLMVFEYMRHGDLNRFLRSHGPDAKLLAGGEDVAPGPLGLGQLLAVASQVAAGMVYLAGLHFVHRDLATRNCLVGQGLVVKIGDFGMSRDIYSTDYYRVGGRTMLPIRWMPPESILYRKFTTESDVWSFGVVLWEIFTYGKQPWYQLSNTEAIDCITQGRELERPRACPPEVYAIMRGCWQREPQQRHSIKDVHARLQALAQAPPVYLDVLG

For `C[C@H](C(=O)N(C)c1cnc2[nH]c(-c3n[nH]c4c3C[C@@H]3C[C@]3(C)C4)nc2c1)C1CCOCC1` [Example 10, (S)-N-Methyl-N-(2-((4aS,5aR)-5a-methyl-1,4,4a,5,5a,6-hexahydrocyclopropa[f]indazol-3-yl)-3H-imidazo[4,5-b]pyridin-6-yl)-2-(tetrahydro-2H-pyran-4-yl)propanamide], the figures for the IC50 in assay [1] and in assay [3] (T-cell) were 91 nM and 338 nM, respectively. Further, the inhibition – broadly, the relative decrease from the control value, in per cent – at 1 µM in assay [2] is 98%.
Taken in the same sequence, the figures for `C[C@@H](C(=O)N(C)c1cc2[nH]c(-c3n[nH]c4c3C[C@@H]3C[C@]3(C)C4)nc2nc1F)N1CCOCC1` [Example 17, (S)-N-(5-Fluoro-2-((4aS,5aR)-5a-methyl-1,4,4a,5,5a,6-hexahydrocyclopropa[f]indazol-3-yl)-1H-imidazo[4,5-b]pyridin-6-yl)-N-methyl-2-morpholinopropanamide] were 41 nM, 307 nM and 96%.
With `CCN(C(=O)[C@H](C)C1CCOCC1)c1cnc2[nH]c(-c3n[nH]c4c3C[C@@H]3C[C@]3(C)C4)nc2c1` [Example 19, (R)-N-Ethyl-N-(2-((4aS,5aR)-5a-methyl-1,4,4a,5,5a,6-hexahydrocyclopropa[f]indazol-3-yl)-3H-imidazo[4,5-b]pyridin-6-yl)-2-(tetrahydro-2H-pyran-4-yl)propenamide], the values for the half-maximal inhibitory concentration (IC50) in assay [1] and in assay [3] were 17 nM and 153 nM, respectively. The TRKA % inhibition in assay [2] was 98%.
For the compound `CCN(C(=O)[C@@H](C)N1CCOCC1)c1cnc2[nH]c(-c3n[nH]c4c3CCC(C)(C)C4)nc2c1` [Example 22, (R)-N-(2-(6,6-Dimethyl-4,5,6,7-tetrahydro-1H-indazol-3-yl)-3H-imidazo[4,5-b]pyridin-6-yl)-N-ethyl-2-morpholinopropanamide], the figures for the 50% inhibitory concentration (IC50) in assay [1] and in assay [3] (T-cell) were 85 nM and 471 nM, respectively. Besides, in assay [2], the inhibition at 1 µM came out at 94%.
Consider `C[C@@H](C(=O)N(C)c1cnc2[nH]c(-c3n[nH]c4c3C[C@@H]3C(F)(F)[C@]3(C)C4)nc2c1)N1CCOCC1` [Example 23, (S)-N-(2-((4aS,5aR)-5,5-Difluoro-5a-methyl-1,4,4a,5,5a,6-hexahydrocyclopropa[f]indazol-3-yl)-3H-imidazo[4,5-b]pyridin-6-yl)-N-methyl-2-morpholinopropanamide], for which the IC50 (usually the point on the concentration scale where inhibition reaches its midpoint) in assay [1] was determined as 1330 nM; in assay [3] (T-cell), 1850 nM. Further, the inhibition at 1 µM in assay [2] was 54%.
Taken in the same sequence, the figures for `C[C@@H](C(=O)N(C)c1cnc2[nH]c(-c3n[nH]c4c3C[C@H]3C(F)(F)[C@@]3(C)C4)nc2c1)N1CCOCC1` [Example 24, (S)-N-(2-((4aR,5aS)-5,5-Difluoro-5a-methyl-1,4,4a,5,5a,6-hexahydrocyclopropa[f]indazol-3-yl)-3H-imidazo[4,5-b]pyridin-6-yl)-N-methyl-2-morpholinopropanamide] were 3 nM, 34 nM and 95%.
Taken in the same sequence, the figures for `C[C@@H](C(=O)N(C)c1cnc2[nH]c(-c3n[nH]c4c3C[C@@H]3C[C@]3(C)C4)nc2c1)N1CCOCC1` [Example 28, (S)-N-Methyl-N-(2-((4aS,5aR)-5a-methyl-1,4,4a,5,5a,6-hexahydrocyclopropa[f]indazol-3-yl)-3H-imidazo[4,5-b]pyridin-6-yl)-2-morpholinopropanamide] were 23 nM, 121 nM and 91%.
In the case of `C[C@@H](C(=O)N(C)c1cnc2[nH]c(-c3n[nH]c4c3C[C@H]3C[C@@]3(C)C4)nc2c1)N1CCOCC1` [Example 29, (2S)-N-Methyl-N-(2-(5a-methyl-1,4,4a,5,5a,6-hexahydrocyclopropa[f]indazol-3-yl)-3H-imidazo[4,5-b]pyridin-6-yl)-2-morpholinopropanamide], the IC50 was found to be 2850 nM in assay [1] and 2530 nM in assay [3] (T-cell). The inhibition at 1 µM in assay [2] came out at 69%.
As to `CCN(C(=O)[C@H](C)N1CCOCC1)c1cnc2[nH]c(-c3n[nH]c4c3C[C@@H]3C(F)(F)[C@]3(C)C4)nc2c1` [Example 30, (S)-N-(2-((4aS,5aR)-5,5-Difluoro-5a-methyl-1,4,4a,5,5a,6-hexahydrocyclopropa[f]indazol-3-yl)-3H-imidazo[4,5-b]pyridin-6-yl)-N-ethyl-2-morpholinopropanamide], the figures for the IC50 in assay [1] and in assay [3] (T-cell) were 8 nM and 79 nM, respectively. Further, in assay [2], the inhibition at 1 µM came to 97%.
For the compound `C[C@@H](C(=O)N(CCO)c1cnc2[nH]c(-c3n[nH]c4c3C[C@@H]3C[C@]3(C)C4)nc2c1)C1CCOCC1` [Example 31, (R)-N-(2-Hydroxyethyl)-N-(2-((4aS,5aR)-5a-methyl-1,4,4a,5,5a,6-hexahydrocyclopropa[f]indazol-3-yl)-3H-imidazo[4,5-b]pyridin-6-yl)-2-(tetrahydro-2H-pyran-4-yl)propenamide], the half-maximal inhibitory concentration (IC50) is 25 nM in assay [1] and 415 nM in assay [3] (T-cell). Besides, in assay [2], the inhibition at 1 µM turned out to be 95%.
On to `C[C@@H](C(=O)N(C)c1cnc2[nH]c(-c3n[nH]c4c3CCC(C)(C)C4)nc2c1)C1CCOCC1` [Example 32, (R)-N-(2-(6,6-Dimethyl-4,5,6,7-tetrahydro-1H-indazol-3-yl)-3H-imidazo[4,5-b]pyridin-6-yl)-N-methyl-2-(tetrahydro-2H-pyran-4-yl)propenamide], for which the IC50 was determined as 17 nM in assay [1] and 167 nM in assay [3] (T-cell). The inhibition at 1 µM in assay [2] is 94%.
For the compound `COc1nc2[nH]c(-c3n[nH]c4c3C[C@@H]3C[C@]3(C)C4)nc2cc1N(C)C(=O)[C@H](C)N1CCOCC1` [Example 36, (S)-N-(5-Methoxy-2-((4aS,5aR)-5a-methyl-1,4,4a,5,5a,6-hexahydrocyclopropa[f]indazol-3-yl)-3H-imidazo[4,5-b]pyridin-6-yl)-N-methyl-2-morpholinopropanamide], the IC50 is 47 nM in assay [1] and 172 nM in assay [3] (T-cell). Besides, the inhibition at 1 µM in assay [2] turned out to be 95%.
As to `COCCOc1nc2[nH]c(-c3n[nH]c4c3C[C@@H]3C[C@]3(C)C4)nc2cc1N(C)C(=O)[C@H](C)N1CCOCC1` [Example 40, (S)-N-(5-(2-Methoxyethoxy)-2-((4aS,5aR)-5a-methyl-1,4,4a,5,5a,6-hexahydrocyclopropa[f]indazol-3-yl)-3H-imidazo[4,5-b]pyridin-6-yl)-N-methyl-2-morpholinopropanamide], the IC50 worked out at 28 nM in assay [1] and 182 nM in assay [3] (T-cell). Further, the inhibition at 1 µM in assay [2] is 97%.
In the case of `CN(C(=O)CC1CCCCC1)c1cnc2nc(-c3n[nH]c4c3C[C@@H]3C[C@]3(C)C4)[nH]c2c1` [Example 47, 2-Cyclohexyl-N-methyl-N-(2-((4aS,5aR)-5a-methyl-1,4,4a,5,5a,6-hexahydrocyclopropa[f]indazol-3-yl)-1H-imidazo[4,5-b]pyridin-6-yl)acetamide], the 50% inhibitory concentration (IC50) was determined as 44 nM in assay [1] and 189 nM in assay [3] (T-cell). Besides, in assay [2], the inhibition at 1 µM stood at 95%.
With `CN(C(=O)CN1CCCOC1=O)c1cnc2nc(-c3n[nH]c4c3C[C@@H]3C[C@]3(C)C4)[nH]c2c1` [Example 57, N-Methyl-N-(2-((4aS,5aR)-5a-methyl-1,4,4a,5,5a,6-hexahydrocyclopropa[f]indazol-3-yl)-1H-imidazo[4,5-b]pyridin-6-yl)-2-(2-oxo-1,3-oxazinan-3-yl)acetamide], the IC50 in assay [1] amounted to 36 nM; in assay [3] (T-cell), 974 nM. Moreover, in assay [2], the inhibition at 1 µM was 106%.
Regarding `CN(C(=O)CN1CCOCC1)c1cnc2nc(-c3n[nH]c4c3C[C@@H]3C[C@]3(C)C4)[nH]c2c1` [Example 58, N-Methyl-N-(2-((4aS,5aR)-5a-methyl-1,4,4a,5,5a,6-hexahydrocyclopropa[f]indazol-3-yl)-1H-imidazo[4,5-b]pyridin-6-yl)-2-morpholinoacetamide], the IC50 is 102 nM in assay [1] and 380 nM in assay [3] (T-cell). The inhibition at 1 µM in assay [2] was 108%.
On to `CN(C(=O)C1(F)CCOCC1)c1cnc2nc(-c3n[nH]c4c3C[C@@H]3C[C@]3(C)C4)[nH]c2c1` [Example 61, 4-Fluoro-N-methyl-N-(2-((4aS,5aR)-5a-methyl-1,4,4a,5,5a,6-hexahydrocyclopropa[f]indazol-3-yl)-1H-imidazo[4,5-b]pyridin-6-yl)tetrahydro-2H-pyran-4-carboxamide], for which the values for the IC50 in assay [1] and in assay [3] (T-cell) were 23 nM and 88 nM, respectively. In assay [2], the inhibition at 1 µM was determined as 95%.
As for `CC(=O)N(C)CC(=O)N(C)c1cnc2nc(-c3n[nH]c4c3C[C@@H]3C[C@]3(C)C4)[nH]c2c1` [Example 80, N-Methyl-N-(2-((4aS,5aR)-5a-methyl-1,4,4a,5,5a,6-hexahydrocyclopropa[f]indazol-3-yl)-1H-imidazo[4,5-b]pyridin-6-yl)-2-(N-methylacetamido)acetamide], the values for the IC50 in assay [1] and in assay [3] (T-cell) were 54 nM and 1250 nM, respectively. In assay [2], the inhibition at 1 µM was found to be 96%.
